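Grown in 96-well plates, cells were treated for 48 hours with each compound at five concentrations. Insufficient inhibition: endpoint recorded as highest concentration tested. GI50 is the concentration that inhibits growth by half. TGI denotes the concentration required for complete inhibition of growth.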
What was measured:
Assay in all cases: growth of human tumour cells (NCI), 48 h
[1] = tested on: EKVX NSCLC
[2] = tested on: SNB-19 CNS
[3] = tested on: MDA-MB-435
[4] = tested on: OVCAR-4 ovarian
[5] = tested on: SF-539 CNS
[6] = tested on: SK-MEL-28 melanoma
[7] = tested on: OVCAR-8 ovarian
[8] = tested on: NCI-H23 lung
[9] = tested on: PC-3 prostate
[10] = tested on: HT29 colon

SMILES | TGI [1] [µM] | TGI [2] [µM] | TGI [3] [µM] | TGI [4] [µM] | TGI [5] [µM] | TGI [6] [µM] | TGI [7] [µM] | TGI [8] [µM] | TGI [9] [µM] | TGI [10] [µM] | GI50 [1] [µM] | GI50 [2] [µM] | GI50 [3] [µM] | GI50 [4] [µM] | GI50 [5] [µM] | GI50 [6] [µM] | GI50 [7] [µM] | GI50 [8] [µM] | GI50 [9] [µM] | GI50 [10] [µM]
COc1cc(/C=C/c2ccc(C)cc2)cc(OC)c1OC | > 100 | 38.2 | 3.14 | 44.7 | 7.07 | 17.7 | 15.9 | 9.16 | 11.4 | 9.45 |  |  |  |  |  |  |  |  |  | 
Fc1ccc(-c2ncn(C3CCNCC3)c2-c2ccnc(Oc3ccc4c(c3)OCO4)n2)cc1 | > 25 | > 25 | > 25 | > 25 | > 25 | > 23.1 | > 25 | > 25 | > 25 | > 25 | > 25 | > 25 | > 19.5 | 19.7 | > 25 | 8.34 | > 25 | > 25 | > 25 | 9.62
O=S(=O)(O)O | 2470 | 2580 | 634 | 2080 | 1840 | 1700 | 1830 | 1580 | 1190 | 1450 |  |  |  |  |  |  |  |  |  | 
Cc1ccc(/C=C/c2c(C(=O)/C=C/c3ccccc3)c(C)nc3ccccc23)cc1 | 3.58 | 3.08 | 5.59 | 7.72 | 3.19 | 3.27 | 5.46 | 3.78 | 5.05 | 9.5 | 1.85 | 1.66 | 2.1 | 2.19 | 1.74 | 1.77 | 1.83 | 1.64 | 1.84 | 1.63
Cc1ccc2nc3ccccc3c(NCc3ccc(Cl)cc3)c2c1 | 13 | 12.7 | 12.9 | 11.9 | 12.1 | 13.1 | 16.6 | 12 | 8.9 | 7.73 | 6.45 | 6.21 | 6.49 | 5.13 | 5.55 | 6.42 | 5.77 | 5.55 | 2.19 | 1.8
CN1C(=O)c2ccc3ccccc3c2C1=O | 87.2 | > 100 | > 100 | > 100 | > 100 | > 100 | > 100 | > 100 | > 100 | > 100 |  |  |  |  |  |  |  |  |  | 
CCOC(=O)N1C/C(=C\c2ccccc2)C(=O)/C(=C/c2ccccc2)C1 | 31.8 | 20.2 | 5.8 | 13.6 | 11 | 6.69 | 9.51 | 11.4 | 5.16 | 4.05 |  |  |  |  |  |  |  |  |  | 
